Measurements: ChEMBL document CHEMBL5608189, “Design and synthesis of unique indole-benzosulfonamide oleanolic acid derivatives as potent antibacterial agents against MRSA” (Eur J Med Chem, 2024)
Converted amounts (≈) assume the structure as drawn. The source made the active and inactive calls. No cut-off for these calls is given here.

Assays:
[1] = test system: Staphylococcus epidermidis; assay: Antibacterial activity against Staphylococcus epidermidis ATCC 12228 assessed as inhibition of bacterial growth at 2 to 4 times MIC measured every 2 hrs for 24 hrs by time kill assay relative to control; type: functional
[2] = test system: Staphylococcus aureus; assay: Antibacterial activity against Staphylococcus aureus ATCC 29213 measured after 24 hrs by susceptibility assay; type: functional
[3] = test system: Staphylococcus epidermidis; assay: Antibacterial activity against Staphylococcus epidermidis ATCC 12228 measured after 24 hrs by susceptibility assay; type: functional
[4] = Hemolytic activity in rabbit red blood cells assessed as hemolytic rate at 128 times MIC measured after 1 hr by absorbance based method relative to control; type: toxicity, cell-based, Oryctolagus cuniculus, Erythrocyte; settings: rabbit red blood cells (erythrocytes), read-out: Activity
[5] = test system: Staphylococcus aureus; assay: Bactericidal activity against methicillin-resistant Staphylococcus aureus measured after 24 hrs; type: functional
[6] = test system: Staphylococcus aureus; assay: Antibacterial activity against Staphylococcus aureus ATCC 6538 assessed as inhibition of bacterial growth at 2 to 4 times MIC measured every 2 hrs for 24 hrs by time kill assay relative to control; type: functional
[7] = test system: Staphylococcus aureus; assay: Antibacterial activity against methicillin-resistant Staphylococcus aureus assessed as inhibition of bacterial growth at 2 to 4 times MIC measured every 2 hrs for 24 hrs by time kill assay relative to control; type: functional
[8] = test system: Staphylococcus aureus; assay: Antibacterial activity against methicillin-resistant Staphylococcus aureus assessed as inhibition of bacterial growth at 1 times MIC measured every 2 hrs for 24 hrs by time kill assay; type: functional, organism-based
[9] = test system: Staphylococcus aureus; assay: Antibacterial activity against Staphylococcus aureus ATCC 6538 measured after 24 hrs by susceptibility assay; type: functional
[10] = test system: Staphylococcus aureus; assay: Antibacterial activity against Staphylococcus aureus ATCC 6538 assessed as delay in bacterial growth at 0.5 times MIC measured every 2 hrs for 24 hrs by time kill assay; type: functional, organism-based
[11] = test system: Staphylococcus aureus; assay: Resistant development in methicillin-resistant Staphylococcus aureus assessed as increase in MIC at sub-MIC measured after 20 passages; type: functional, organism-based
[12] = test system: Staphylococcus aureus; assay: Antibacterial activity against methicillin-resistant Staphylococcus aureus measured after 24 hrs by susceptibility assay; type: functional
[13] = test system: Staphylococcus epidermidis; assay: Bactericidal activity against Staphylococcus epidermidis ATCC 12228 measured after 24 hrs; type: functional
[14] = test system: Staphylococcus epidermidis; assay: Antibacterial activity against Staphylococcus epidermidis ATCC 12228 assessed as inhibition of bacterial growth at 1 times MIC measured every 2 hrs for 24 hrs by time kill assay; type: functional, organism-based
[15] = test system: Staphylococcus aureus; assay: Antibacterial activity against Staphylococcus aureus ATCC 6538 assessed as inhibition of bacterial growth at 1 times MIC measured every 2 hrs for 24 hrs by time kill assay; type: functional, organism-based
[16] = test system: Staphylococcus aureus; assay: Bactericidal activity against Staphylococcus aureus ATCC 29213 measured after 24 hrs; type: functional
[17] = test system: Staphylococcus aureus; assay: Antibacterial activity against methicillin-resistant Staphylococcus aureus assessed as delay in bacterial growth at 0.5 times MIC measured every 2 hrs for 24 hrs by time kill assay; type: functional, organism-based
[18] = test system: Staphylococcus epidermidis; assay: Antibacterial activity against Staphylococcus epidermidis ATCC 12228 assessed as delay in bacterial growth at 0.5 times MIC measured every 2 hrs for 24 hrs by time kill assay; type: functional, organism-based
[19] = test system: Staphylococcus aureus; assay: Bactericidal activity against Staphylococcus aureus ATCC 6538 measured after 24 hrs; type: functional
[20] = test system: Staphylococcus aureus; assay: Induction of morphological changes in methicillin-resistant Staphylococcus aureus assessed as appearance of wrinkled and depressed cell membrane surface at 8 times MIC incubated for 8 hrs by SEM analysis; type: functional, organism-based
[21] = test system: Staphylococcus aureus; assay: Induction of morphological changes in methicillin-resistant Staphylococcus aureus assessed as disruption of cellular structure at 8 times MIC incubated for 8 hrs by SEM analysis; type: functional, organism-based

| SMILES | MIC [2] [µM] | MIC [3] [µM] | MIC [9] [µM] | MIC [12] [µM] | other results |
| --- | --- | --- | --- | --- | --- |
| Cc1ccc(S(=O)(=O)NC(=O)[C@]23CCC(C)(C)C[C@H]2C2=CC[C@@H]4[C@@]5(C)Cc6c([nH]c7c(C(=O)O)cccc67)C(C)(C)[C@@H]5CC[C@@]4(C)[C@]2(C)CC3)cc1 | 2 (≈ 1.45 µg/mL) | 2 (≈ 1.45 µg/mL) | 1 (≈ 0.725 µg/mL) | 2 (≈ 1.45 µg/mL) | inhibition (INH) [1]: 100%; hemolysis at 1 h, 128 times MIC [4]: < 5%; MBC [5]: 16 µM (≈ 11.6 µg/mL); inhibition (INH) [6]: 100%; inhibition (INH) [7]: 100%; Activity [8]: Active; Activity [10]: Active; Activity [11]: inactive; MBC [13]: 4 µM (≈ 2.9 µg/mL); Activity [14]: Active; Activity [15]: Active; MBC [16]: 2 µM (≈ 1.45 µg/mL); Activity [17]: Active; Activity [18]: Active; MBC [19]: 2 µM (≈ 1.45 µg/mL) |
| CCn1cc(C(=O)O)c(=O)c2cc(F)c(N3CCNCC3)cc21 [NORFLOXACIN] | 2 (≈ 0.639 µg/mL) | 1 (≈ 0.319 µg/mL) | 2 (≈ 0.639 µg/mL) | 4 (≈ 1.28 µg/mL) | Activity [20]: Active; Activity [21]: inactive |
| CC(=O)c1cccc2c3c([nH]c12)C(C)(C)[C@@H]1CC[C@]2(C)[C@H](CC=C4[C@@H]5CC(C)(C)CC[C@]5(C(=O)NS(=O)(=O)c5ccccc5)CC[C@]42C)[C@@]1(C)C3 | 2 (≈ 1.42 µg/mL) | 0.5 (≈ 0.355 µg/mL) | 1 (≈ 0.709 µg/mL) | 1 (≈ 0.709 µg/mL) | inhibition (INH) [1]: 100%; hemolysis at 1 h, 128 times MIC [4]: < 5%; MBC [5]: 4 µM (≈ 2.84 µg/mL); inhibition (INH) [6]: 100%; inhibition (INH) [7]: 100%; Activity [8]: Active; Activity [10]: Active; Activity [11]: inactive; MBC [13]: 2 µM (≈ 1.42 µg/mL); Activity [14]: Active; Activity [15]: Active; MBC [16]: 2 µM (≈ 1.42 µg/mL); Activity [17]: Active; Activity [18]: Active; MBC [19]: 2 µM (≈ 1.42 µg/mL) |
| Cc1ccc(S(=O)(=O)NC(=O)[C@]23CCC(C)(C)C[C@H]2C2=CC[C@@H]4[C@@]5(C)Cc6c([nH]c7cc(C(=O)O)ccc67)C(C)(C)[C@@H]5CC[C@@]4(C)[C@]2(C)CC3)cc1 | 2 (≈ 1.45 µg/mL) | 1 (≈ 0.725 µg/mL) | 1 (≈ 0.725 µg/mL) | 2 (≈ 1.45 µg/mL) | – |
| COc1cccc(OC)c1C(=O)N[C@@H]1C(=O)N2[C@@H]1SC(C)(C)[C@@H]2C(=O)O [METHICILLIN] | 2 (≈ 0.761 µg/mL) | 2 (≈ 0.761 µg/mL) | 4 (≈ 1.52 µg/mL) | 256 (≈ 97.4 µg/mL) | – |
| CC1(C)CC[C@]2(C(=O)NS(=O)(=O)c3ccc(Cl)cc3)CC[C@]3(C)C(=CC[C@@H]4[C@@]5(C)Cc6c([nH]c7ccc(C(=O)O)cc67)C(C)(C)[C@@H]5CC[C@]43C)[C@@H]2C1 | 1 (≈ 0.745 µg/mL) | 1 (≈ 0.745 µg/mL) | 0.5 (≈ 0.373 µg/mL) | 1 (≈ 0.745 µg/mL) | – |
| CC1(C)CC[C@]2(C(=O)NS(=O)(=O)c3ccc(C(=O)O)cc3)CC[C@]3(C)C(=CC[C@@H]4[C@@]5(C)Cc6c([nH]c7ccc(C(=O)O)cc67)C(C)(C)[C@@H]5CC[C@]43C)[C@@H]2C1 | 64 (≈ 48.3 µg/mL) | 64 (≈ 48.3 µg/mL) | 64 (≈ 48.3 µg/mL) | 64 (≈ 48.3 µg/mL) | – |
| CC1(C)CC[C@]2(C(=O)NS(=O)(=O)c3ccc(Cl)cc3)CC[C@]3(C)C(=CC[C@@H]4[C@@]5(C)CCC(=O)C(C)(C)[C@@H]5CC[C@]43C)[C@@H]2C1 | 8 (≈ 5.03 µg/mL) | 4 (≈ 2.51 µg/mL) | 4 (≈ 2.51 µg/mL) | 32 (≈ 20.1 µg/mL) | – |
| CC1(C)CC[C@]2(C(=O)NS(=O)(=O)c3ccccc3)CC[C@]3(C)C(=CC[C@@H]4[C@@]5(C)Cc6c([nH]c7ccccc67)C(C)(C)[C@@H]5CC[C@]43C)[C@@H]2C1 | > 256 | > 256 | > 256 | > 256 | – |
